Measured values published in patent publication EP0523675A1, “Inhibitory agent against HIV superinfection” (priority 1991, dated 1993).
Where no end group is shown, it is not given here.

System: HTLV-IIIB virus (superinfection of L-2 cells)
Test: Inhibition of superinfection of L-2 cells with HTLV-IIIB, fluorescent antibody technique using V-17 (anti-p18) antibody
Assay type: cell-based, HIV (Human Immunodeficiency Virus)
Details: peptide final concentration 1 mg/ml, mixed with HTLV-IIIB virus liquid M.O.I. = 3.2 for 30 min at room temperature, then inoculated into L-2 cells; checked every 4 days; Fig. 2

## TKGPSKLNDRADSRRS [CD4 peptide (45-60)]
  inhibitory effect on superinfection: not at all observed
